Measured values: paper PMC8739347 (Tropical Medicine and Health, 2022)
pIC50: −log10 of the molar value.

What was measured:
[1] = system: SARS-CoV-2 original Wuhan strain (hCoV-19/Japan/TY/WK-521,2019); assay: Antiviral activity assay in Vero E6 cells, qRT-PCR of supernatant; assay type: cell-based; details: Severe acute respiratory syndrome coronavirus 2, Vero C1008, Vero E6, 72 h pretreatment, MOI 0.02, 48 h pi, compound concentration (for 5-ALA/SFC the 5-ALA concentration, ratio 4:1)
[2] = Cell viability assay (MTT); assay type: cell-based; details: African green monkey, Vero E6 cells; Vero E6, 3 days, in parallel with Delta antiviral assay; 5-ALA concentration
Protocol: (§1) Vero E6 cells in 96-well plates were treated with samples for 3 days, and a cell viability assay was conducted in parallel with an antiviral assay. To determine the concentration that triggered a 50% reduction in cell survival (CC50), the results of the cell viability assay were evaluated by 3-(4,5-dimethylthiazol-2-yl)-2,5-diphenyl tetrazolium bromide according to the manufacturer’s instructions (Promega, Madison, WI, USA). Optical density was measured at 570 nm using a microplate reader (Synergy H1 M; BioTek Instruments, Winooski, VT, USA). Cell viability was determined using the following equation: cell viability (%) = (sample value)/(cell control) × 100. In addition, viral inhibition by 50% (IC50) was calculated as viral inhibition (%) = quantity of virus copies in (virus control − sample)/virus control × 100.

Vero E6 cells = assay: Cell viability assay (MTT); assay type: cell-based; details: Vero E6, 3 days, 5-ALA concentration
Protocol: as §1

[3] = set-up: method as in PMID 11961050; details: oral route; cited from earlier work
SARS-CoV-2 = system: SARS-CoV-2; set-up: method as in PMID 31781665; details: SFC only; cited from earlier work

NCC(=O)CCC(=O)O [5-ALA, 5-aminolevulinic acid]
pIC50 [1]: 3.68
CC50 at 3 days [2]: > 2 mM
CC50 (Vero E6 cells; in parallel with Alpha antiviral assay): > 2 mM
CC50 (Vero E6 cells; in parallel with Beta antiviral assay): > 2 mM
CC50 (Vero E6 cells; in parallel with Gamma antiviral assay): > 2 mM
CC50 (Vero E6 cells; in parallel with Wuhan antiviral assay): > 2 mM
bioavailability [3]: high bioavailability

CCC(CC)COC(=O)[C@H](C)N[P@](=O)(OC[C@H]1O[C@@](C#N)(c2ccc3c(N)ncnn23)[C@H](O)[C@@H]1O)Oc1ccccc1 [remdesivir, Remdesivir]
pIC50 [1]: 6.00 to 7.00

Sodium ferrous citrate [SFC]
antiviral activity (SARS-CoV-2): did not show antiviral activity
